One assay has as its system CHI-39. Put plainly: Chemotaxis of HEK293 cells transfected with chimeric receptor CHI-39. The settings on record: N-terminus of FPR replaced by FPRL1 sequences. It counts as cell-based, human. As for the experimental part:
(§1) Human PBMC were isolated from leukopacks obtained through the courtesy of Transfusion Medicine Department, National Institutes of Health Clinical Center (Bethesda, Md.) by Ficoll-Hypaque density gradient centrifugation. Monocytes were purified from human PBMC by Percoll gradient to yield>90% pure preparations. […] H. Ali and R. Snyderman, Duke University (Durham, N.C.) and maintained in the presence of 0.8 mg/ml geneticin (G418, Life Technologies, Rockville, Md.) in DMEM supplemented with 10% FCS. B. Chemotaxis assay Migration of phagocytes and ETFR cells was assessed using a 48-well microchemotaxis chamber (Neuroprobe, Cabin John, Md.) as previously described (Hu et al. (2001) J Leukoc Biol 70 15512). […] After incubation at 37° C. in humidified air with 5% CO2 (60 min for neutrophils, 90 min for monocytes, 4.5 h for ETFR cells), the filter was removed and stained, and the cells migrating across the filter were counted with light microscopy. […]
(§2) The chimeric receptor was stably transfected into HEK293 cells (a human embryo kidney cell line) and the chemotactic activity of CaG on the transfected cells was measured and compared to the chemotactic activity of CaG on […] cells transfected with wild type FPR, using the assay for chemotaxis described in Example IB. […]

The next assay concerns neutrophils. Kind of assay: Calcium flux (Fura-2), neutrophils. It counts as cell-based, human. A general note: Calcium assays in cells follow changes in intracellular calcium, usually with a dye or a luminescent sensor.
The target in assay [1] is T1, FPR (Homo sapiens, UniProt P21462).
T1 construct: expressed in transfected cells; host or cells: Rat basophilic leukemia (RBL) cells, stably transfected (ETFR cells); gift of H. Ali and R. Snyderman, Duke University
T1 sequence (P21462 1-350): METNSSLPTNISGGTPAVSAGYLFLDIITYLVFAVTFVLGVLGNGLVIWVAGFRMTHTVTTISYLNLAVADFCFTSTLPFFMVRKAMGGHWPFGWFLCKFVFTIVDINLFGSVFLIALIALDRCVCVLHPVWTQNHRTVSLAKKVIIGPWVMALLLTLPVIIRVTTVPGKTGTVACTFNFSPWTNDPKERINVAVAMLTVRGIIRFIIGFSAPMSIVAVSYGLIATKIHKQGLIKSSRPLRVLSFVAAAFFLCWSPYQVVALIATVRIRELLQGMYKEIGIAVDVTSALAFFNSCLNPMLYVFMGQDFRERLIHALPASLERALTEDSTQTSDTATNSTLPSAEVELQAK
Kind of assay: Calcium flux (Fura-2), ETFR cells. It counts as cell-based. The settings on record: CaG 10 μg/ml. As for the experimental part: (§3) Monocytes or ETFR cells (10^7 cells/ml in RPMI 1640 containing 10% FBS) were loaded with 5 μM Fura-2 at room temperature (30 min for monocytes, 60 min for ETFR cells) in the dark. The cells were washed and resuspended (0.5×10^6 cells/ml) in saline buffer (138 mM NaCl, 6 mM KCl, 1 mM CaCl2, 10 mM HEPES, 5 mM glucose, and 1% BSA, pH 7.4). Two milliliters of the cell suspension were transferred to a quartz cuvette, which was placed in a luminescence spectrometer LS55 (Perkin-Elmer, Beaconsfield, UK). Calcium mobilization was measured by recording the ratio of the fluorescence excited at 340 and 380 nm in response to stimulants.

The target in assay [2] is T1, FPR. Put plainly: 125I-CaG binding to ETFR cells. The following applies: LIGAND program. The procedure:
(§4) CaG was iodinated with a chrolamine-T method (Lofstrand Labs, Gaithersburg, Md.) with a specific activity of […] protein. Duplicate samples of ETFR cells or the parental RBL cells (2×10^6 cells in 200 μl RPMI 1640 containing 1% bovine serum albumin, 25 mM Hepes, and 0.05% NaN3) were incubated with 25 nM ^125I-CaG, in the presence of increasing concentrations of unlabeled ligands. After incubation and rotation at room temperature for 1 h, the cells were pelleted through a 10% sucrose/PBS cushion for 1 min at 10,000 g. The supernatant was removed and the radioactivity associated with cell pellets was measured in a γ counter (CliniGamma, Pharmacia Biotech Inc.). The binding data were analyzed with a Macintosh computer-aided program LIGAND (Dr. P. Munson, Division of Computer Research and Technology, NIH, Bethesda, Md.).

Assay [3] deals with T1, FPR. Put plainly: Chemotaxis of HEK293 cells transfected with FPR. It is filed as cell-based. The settings on record: chemotaxis index. The procedure: as §1, §2
The subject of another assay is monocytes. Put plainly: Calcium flux (Fura-2), monocytes. It is filed as cell-based, human. The procedure: as §3
Another assay deals with parental RBL cells. Put plainly: 125I-CaG binding to parental RBL cells. Also on record: species or system rat. The settings on record: 25 nM 125I-CaG. As for the experimental part:
as §4

Where [4] appears, read: concentrations up to 20 μg/ml (800 nM).

Entries after “also recorded” stand apart in the source; their conditions may differ.

Take “CaG: Cathepsin G, serine protease purified from neutrophil granules, purchased from Athens Research & Technology”: in the assay with CHI-39, the “chemotactic activity on CHI-39-transfected HEK293 cells” value is “exhibit robust migration in response to CaG”. For the same substance, the “Ca2+ flux” value with neutrophils (CaG 10 μg/ml) is “failed to induce significant Ca^2+ flux”; with FPR [1] it was “weak inducer of Ca^2+ flux; also recorded: induced a measurable level of Ca flux”; with monocytes (CaG 10 μg/ml) it was “failed to induce significant Ca^2+ flux”. For the same substance, the “attenuation of Ca2+ response to fMLF” value with neutrophils (CaG 10 μg/ml, 0.1 nM fMLF) is given as “attenuated cell response induced by low concentrations of fMLF; also recorded: significantly attenuated cell response to 0.1 nM fMLF”; in the assay with FPR [1] (0.1 nM fMLF), “attenuated cell response induced by low concentrations of fMLF; also recorded: significantly attenuated cell response to 0.1 nM fMLF”; in the assay with monocytes (CaG 10 μg/ml, 0.1 nM fMLF), “attenuated cell response induced by low concentrations of fMLF; also recorded: significantly attenuated cell response to 0.1 nM fMLF”. The “Ca2+ mobilizing activity” value in the assay on neutrophils (setting [4]) and in the assay on monocytes (setting [4]) was “lacked significant Ca^2+ mobilizing activity” throughout. In the assay with FPR [2], the “Kd of 125I-CaG binding” value is “approximately 2 μg/ml”. Also, the “chemotactic activity on FPR-transfected HEK293 cells” value with FPR [3] was “chemotacic for FPR-transfected HEK 293 cells”. Besides, in the assay with parental RBL cells, the “specific binding of 125I-CaG to parental RBL cells” value is “no measurable levels of specific binding”.
